In the kinase profiling compilation of Christmann-Franck et al. (2016):

Experiments:
Assay in all cases: radiometric filter-binding kinase assay
[1] = tested on: AKT2 (human), P31751 [S474D]
[2] = target: BRSK1 (human) (UniProt Q8TDC3)
[3] = target: CAMKK2 (human) (UniProt Q96RR4)
[4] = target: CLK2 (human) (UniProt P49760)
[5] = target: CSK (human) (UniProt P41240)
[6] = target: CSNK1D (human) (UniProt P48730)
[7] = target: DYRK3 (human) (UniProt O43781)
[8] = target: EPHA2 (human) (UniProt P29317)
[9] = target: FGFR1 (human) (UniProt P11362)
[10] = target: FLT1 (human) (UniProt P17948)
[11] = target: GSK3B (human) (UniProt P49841)
[12] = target: HIPK1 (human) (UniProt Q86Z02)
[13] = target: HIPK3 (human) (UniProt Q9H422)
[14] = target: IGF1R (human) (UniProt P08069)
[15] = target: INSR (human) (UniProt P06213)
[16] = target: IRAK4 (human) (UniProt Q9NWZ3)
[17] = target: JAK2 JH1 JH2 (human) (UniProt O60674)
[18] = tested on: LCK (mouse); conditions: accession and sequence are those of the human protein
[19] = target: MAP3K1 (human) (UniProt Q13233)
[20] = target: MAP3K7 TAB1 (human) (UniProt Q15750+O43318)
[21] = target: MAPK11 (human) (UniProt Q15759)
[22] = target: MAPK14 (human) (UniProt Q16539)
[23] = target: MAPK15 (human) (UniProt Q8TD08)
[24] = target: MAPKAPK5 (human) (UniProt Q8IW41)
[25] = target: MARK1 (human) (UniProt Q9P0L2)
[26] = target: MELK (human) (UniProt Q14680)
[27] = target: MINK1 (human) (UniProt Q8N4C8)
[28] = target: NTRK1 (human) (UniProt P04629)
[29] = target: PRKCZ (human) (UniProt Q05513)
[30] = target: RIPK2 (human) (UniProt O43353)
[31] = tested on: ROCK2 (rat); conditions: accession and sequence are those of the human protein
[32] = target: RPS6KA3 KD1 KD2 (human) (UniProt P51812)
[33] = target: SRC (human) (UniProt P12931)
[34] = target: STK11 CAB39 STRADA (human) (UniProt Q9Y376+Q7RTN6+Q15831)
[35] = target: TAOK1 (human) (UniProt Q7L7X3)

Chain of AKT2 (human), P31751 [S474D] (P31751 whole entry S474D, looked up): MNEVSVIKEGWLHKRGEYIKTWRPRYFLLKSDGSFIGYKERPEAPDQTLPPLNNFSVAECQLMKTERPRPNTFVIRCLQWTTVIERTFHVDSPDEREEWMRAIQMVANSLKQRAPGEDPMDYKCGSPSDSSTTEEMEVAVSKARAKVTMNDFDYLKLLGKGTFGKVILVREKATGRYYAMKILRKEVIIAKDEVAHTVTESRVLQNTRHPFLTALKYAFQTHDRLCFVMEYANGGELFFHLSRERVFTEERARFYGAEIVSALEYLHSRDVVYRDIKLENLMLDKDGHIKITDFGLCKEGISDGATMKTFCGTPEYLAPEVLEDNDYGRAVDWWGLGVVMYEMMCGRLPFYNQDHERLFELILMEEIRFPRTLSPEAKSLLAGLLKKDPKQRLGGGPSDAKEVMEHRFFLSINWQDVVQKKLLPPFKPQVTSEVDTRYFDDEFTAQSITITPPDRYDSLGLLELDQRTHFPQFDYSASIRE
Chain of MAPK11 (human) (Q15759 whole entry, looked up): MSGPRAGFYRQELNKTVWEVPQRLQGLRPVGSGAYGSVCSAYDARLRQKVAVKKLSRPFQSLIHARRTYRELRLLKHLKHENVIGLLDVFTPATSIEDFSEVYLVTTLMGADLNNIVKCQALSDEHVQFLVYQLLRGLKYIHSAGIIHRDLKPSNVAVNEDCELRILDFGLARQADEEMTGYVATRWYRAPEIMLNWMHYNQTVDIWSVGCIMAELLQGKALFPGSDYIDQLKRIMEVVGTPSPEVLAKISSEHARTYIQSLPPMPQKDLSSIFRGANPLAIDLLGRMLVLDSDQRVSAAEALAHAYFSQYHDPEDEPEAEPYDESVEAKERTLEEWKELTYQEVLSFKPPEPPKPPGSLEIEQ
Chain of CAMKK2 (human) (Q96RR4 whole entry, looked up): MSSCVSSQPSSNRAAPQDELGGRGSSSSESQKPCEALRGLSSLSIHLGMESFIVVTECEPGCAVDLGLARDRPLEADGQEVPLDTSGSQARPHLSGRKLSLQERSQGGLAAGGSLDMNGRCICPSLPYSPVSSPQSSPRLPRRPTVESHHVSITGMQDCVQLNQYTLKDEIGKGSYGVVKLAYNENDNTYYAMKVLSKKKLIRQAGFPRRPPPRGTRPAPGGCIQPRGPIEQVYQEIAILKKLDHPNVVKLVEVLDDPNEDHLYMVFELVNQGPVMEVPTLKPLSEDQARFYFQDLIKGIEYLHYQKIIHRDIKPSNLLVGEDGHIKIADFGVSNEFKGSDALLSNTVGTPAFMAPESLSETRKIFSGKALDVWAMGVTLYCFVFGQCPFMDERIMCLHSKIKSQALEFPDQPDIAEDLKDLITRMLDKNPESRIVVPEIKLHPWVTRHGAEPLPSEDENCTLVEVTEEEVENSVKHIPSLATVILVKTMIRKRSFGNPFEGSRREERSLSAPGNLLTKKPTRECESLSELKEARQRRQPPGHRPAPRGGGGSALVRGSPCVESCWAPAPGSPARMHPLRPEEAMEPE
Chain of MAPK14 (human) (Q16539 whole entry, looked up): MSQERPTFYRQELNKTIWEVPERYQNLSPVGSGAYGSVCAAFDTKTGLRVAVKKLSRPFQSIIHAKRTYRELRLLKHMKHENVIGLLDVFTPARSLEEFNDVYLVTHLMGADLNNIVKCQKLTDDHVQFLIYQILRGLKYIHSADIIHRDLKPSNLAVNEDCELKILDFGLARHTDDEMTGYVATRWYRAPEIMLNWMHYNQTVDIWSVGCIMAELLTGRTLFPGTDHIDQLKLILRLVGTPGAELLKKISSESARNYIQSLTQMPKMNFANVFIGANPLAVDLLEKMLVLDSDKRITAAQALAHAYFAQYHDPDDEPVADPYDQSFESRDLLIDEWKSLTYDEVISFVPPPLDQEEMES
Chain of RIPK2 (human) (O43353 whole entry, looked up): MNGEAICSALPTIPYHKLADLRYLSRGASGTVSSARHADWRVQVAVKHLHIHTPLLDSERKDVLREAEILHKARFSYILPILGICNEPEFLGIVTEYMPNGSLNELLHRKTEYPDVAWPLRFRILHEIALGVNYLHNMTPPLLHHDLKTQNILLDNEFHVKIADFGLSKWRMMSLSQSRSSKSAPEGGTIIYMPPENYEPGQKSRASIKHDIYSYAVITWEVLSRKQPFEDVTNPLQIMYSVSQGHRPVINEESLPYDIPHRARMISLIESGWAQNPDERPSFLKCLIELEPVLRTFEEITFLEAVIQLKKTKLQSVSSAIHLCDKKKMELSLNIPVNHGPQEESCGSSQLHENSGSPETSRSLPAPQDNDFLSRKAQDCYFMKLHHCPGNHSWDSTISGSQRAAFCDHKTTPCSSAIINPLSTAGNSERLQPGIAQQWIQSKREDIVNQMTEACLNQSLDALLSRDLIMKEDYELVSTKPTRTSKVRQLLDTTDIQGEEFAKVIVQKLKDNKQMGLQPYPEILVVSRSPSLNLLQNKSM
Chain of PRKCZ (human) (Q05513 whole entry, looked up): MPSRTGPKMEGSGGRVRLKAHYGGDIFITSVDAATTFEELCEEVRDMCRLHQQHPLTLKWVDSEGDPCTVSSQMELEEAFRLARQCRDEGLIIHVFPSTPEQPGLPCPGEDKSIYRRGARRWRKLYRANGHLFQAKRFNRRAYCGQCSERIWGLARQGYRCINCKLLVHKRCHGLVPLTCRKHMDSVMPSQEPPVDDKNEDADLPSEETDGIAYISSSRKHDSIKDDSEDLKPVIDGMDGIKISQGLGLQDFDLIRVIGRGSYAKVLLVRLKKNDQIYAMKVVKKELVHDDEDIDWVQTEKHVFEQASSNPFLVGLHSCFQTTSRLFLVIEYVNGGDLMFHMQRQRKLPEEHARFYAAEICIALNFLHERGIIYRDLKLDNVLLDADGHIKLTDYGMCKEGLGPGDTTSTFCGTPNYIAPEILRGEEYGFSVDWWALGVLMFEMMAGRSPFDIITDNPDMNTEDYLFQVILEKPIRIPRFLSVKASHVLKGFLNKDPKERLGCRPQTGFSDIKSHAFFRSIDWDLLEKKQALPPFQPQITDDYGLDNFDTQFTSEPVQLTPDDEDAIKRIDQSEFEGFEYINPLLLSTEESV
Chain of EPHA2 (human) (P29317 whole entry, looked up): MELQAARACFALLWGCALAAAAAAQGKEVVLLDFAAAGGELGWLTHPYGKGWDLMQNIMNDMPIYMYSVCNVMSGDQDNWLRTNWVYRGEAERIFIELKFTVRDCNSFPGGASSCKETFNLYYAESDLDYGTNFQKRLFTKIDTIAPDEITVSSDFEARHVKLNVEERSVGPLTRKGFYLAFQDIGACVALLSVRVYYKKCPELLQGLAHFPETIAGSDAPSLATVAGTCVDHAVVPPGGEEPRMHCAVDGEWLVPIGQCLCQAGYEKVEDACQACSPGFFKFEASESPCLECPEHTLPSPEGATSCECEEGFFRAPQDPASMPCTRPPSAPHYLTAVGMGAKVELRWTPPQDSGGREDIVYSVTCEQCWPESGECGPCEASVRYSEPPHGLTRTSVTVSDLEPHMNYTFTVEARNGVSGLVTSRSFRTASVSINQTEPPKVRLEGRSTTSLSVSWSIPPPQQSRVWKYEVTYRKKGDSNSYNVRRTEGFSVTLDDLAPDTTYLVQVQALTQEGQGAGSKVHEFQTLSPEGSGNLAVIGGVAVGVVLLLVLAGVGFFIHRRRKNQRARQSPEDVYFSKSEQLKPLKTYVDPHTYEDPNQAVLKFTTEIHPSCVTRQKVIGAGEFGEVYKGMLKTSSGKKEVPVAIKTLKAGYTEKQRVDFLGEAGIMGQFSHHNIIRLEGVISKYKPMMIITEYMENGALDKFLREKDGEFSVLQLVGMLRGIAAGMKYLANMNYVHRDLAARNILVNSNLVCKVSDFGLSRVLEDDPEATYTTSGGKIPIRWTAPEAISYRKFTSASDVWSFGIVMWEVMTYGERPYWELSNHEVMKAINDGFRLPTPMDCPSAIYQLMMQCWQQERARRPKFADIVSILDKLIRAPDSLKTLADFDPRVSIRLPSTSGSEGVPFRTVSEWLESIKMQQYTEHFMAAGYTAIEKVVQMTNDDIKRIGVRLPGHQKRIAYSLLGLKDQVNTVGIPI
Chain of BRSK1 (human) (Q8TDC3 whole entry, looked up): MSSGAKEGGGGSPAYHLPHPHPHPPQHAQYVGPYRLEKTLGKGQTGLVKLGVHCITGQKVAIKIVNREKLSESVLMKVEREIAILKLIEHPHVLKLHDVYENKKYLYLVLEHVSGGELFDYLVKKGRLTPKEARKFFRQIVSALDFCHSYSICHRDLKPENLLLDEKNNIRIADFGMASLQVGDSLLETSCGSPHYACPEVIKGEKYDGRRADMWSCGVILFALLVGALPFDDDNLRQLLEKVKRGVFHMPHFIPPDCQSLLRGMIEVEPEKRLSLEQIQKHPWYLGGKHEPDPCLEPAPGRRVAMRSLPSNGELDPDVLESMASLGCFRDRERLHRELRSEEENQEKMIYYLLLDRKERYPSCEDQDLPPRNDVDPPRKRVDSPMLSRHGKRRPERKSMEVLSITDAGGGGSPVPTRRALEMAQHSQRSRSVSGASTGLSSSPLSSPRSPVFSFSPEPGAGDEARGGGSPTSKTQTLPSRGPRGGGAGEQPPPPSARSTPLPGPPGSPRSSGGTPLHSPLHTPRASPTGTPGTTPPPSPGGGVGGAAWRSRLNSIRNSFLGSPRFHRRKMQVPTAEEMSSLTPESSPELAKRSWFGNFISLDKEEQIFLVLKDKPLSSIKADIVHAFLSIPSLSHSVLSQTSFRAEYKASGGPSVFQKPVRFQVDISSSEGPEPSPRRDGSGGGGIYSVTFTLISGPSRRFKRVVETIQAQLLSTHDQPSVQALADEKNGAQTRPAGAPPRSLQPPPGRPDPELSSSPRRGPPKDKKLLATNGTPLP

O=C(NCCCNc1nc(Nc2cccc(CN3CCOCC3)c2)ncc1C1CC1)C1CCC1
residual activity ([1]; compound 0.1 µM): 99% | residual activity ([1]; compound 1.0 µM): 108% | residual activity ([2]; compound 0.1 µM): 99% | residual activity ([2]; compound 1.0 µM): 82% | residual activity ([3]; compound 0.1 µM): 58% | residual activity ([3]; compound 1.0 µM): 21% | residual activity ([4]; compound 0.1 µM): 63% | residual activity ([4]; compound 1.0 µM): 21% | residual activity ([5]; compound 0.1 µM): 98% | residual activity ([5]; compound 1.0 µM): 112% | residual activity ([6]; compound 0.1 µM): 99% | residual activity ([6]; compound 1.0 µM): 66% | residual activity ([7]; compound 0.1 µM): 91% | residual activity ([7]; compound 1.0 µM): 101% | residual activity ([8]; compound 0.1 µM): 95% | residual activity ([8]; compound 1.0 µM): 98% | residual activity ([9]; compound 0.1 µM): 83% | residual activity ([9]; compound 1.0 µM): 63% | residual activity ([10]; compound 0.1 µM): 87% | residual activity ([10]; compound 1.0 µM): 74% | residual activity ([11]; compound 0.1 µM): 95% | residual activity ([11]; compound 1.0 µM): 96% | residual activity ([12]; compound 0.1 µM): 96% | residual activity ([12]; compound 1.0 µM): 94% | residual activity ([13]; compound 0.1 µM): 91% | residual activity ([13]; compound 1.0 µM): 108% | residual activity ([14]; compound 0.1 µM): 90% | residual activity ([14]; compound 1.0 µM): 105% | residual activity ([15]; compound 0.1 µM): 97% | residual activity ([15]; compound 1.0 µM): 100% | residual activity ([16]; compound 0.1 µM): 95% | residual activity ([16]; compound 1.0 µM): 83% | residual activity ([17]; compound 0.1 µM): 41% | residual activity ([17]; compound 1.0 µM): 14% | residual activity ([18]; compound 0.1 µM): 80% | residual activity ([18]; compound 1.0 µM): 67% | residual activity ([19]; compound 0.1 µM): 115% | residual activity ([19]; compound 1.0 µM): 137% | residual activity ([20]; compound 0.1 µM): 96% | residual activity ([20]; compound 1.0 µM): 57% | residual activity ([21]; compound 0.1 µM): 103% | residual activity ([21]; compound 1.0 µM): 114% | residual activity ([22]; compound 0.1 µM): 100% | residual activity ([22]; compound 1.0 µM): 107% | residual activity ([23]; compound 0.1 µM): 81% | residual activity ([23]; compound 1.0 µM): 34% | residual activity ([24]; compound 0.1 µM): 104% | residual activity ([24]; compound 1.0 µM): 122% | residual activity ([25]; compound 0.1 µM): 16% | residual activity ([25]; compound 1.0 µM): 9% | residual activity ([26]; compound 0.1 µM): 43% | residual activity ([26]; compound 1.0 µM): 26% | residual activity ([27]; compound 0.1 µM): 123% | residual activity ([27]; compound 1.0 µM): 103% | residual activity ([28]; compound 0.1 µM): 84% | residual activity ([28]; compound 1.0 µM): 47% | residual activity ([29]; compound 0.1 µM): 90% | residual activity ([29]; compound 1.0 µM): 95% | residual activity ([30]; compound 0.1 µM): 109% | residual activity ([30]; compound 1.0 µM): 112% | residual activity ([31]; compound 0.1 µM): 91% | residual activity ([31]; compound 1.0 µM): 81% | residual activity ([32]; compound 0.1 µM): 71% | residual activity ([32]; compound 1.0 µM): 56% | residual activity ([33]; compound 0.1 µM): 88% | residual activity ([33]; compound 1.0 µM): 70% | residual activity ([34]; compound 0.1 µM): 109% | residual activity ([34]; compound 1.0 µM): 118% | residual activity ([35]; compound 0.1 µM): 78% | residual activity ([35]; compound 1.0 µM): 71%
